# In ChEMBL document CHEMBL2331130, “Synthesis and antibacterial activity of 9-oxime ether non-ketolides, and novel binding mode of alkylides with bacterial rRNA” (2013):
# Key:
# Assay type in all cases: functional
# [1] = test system: Staphylococcus epidermidis; test: Antibacterial activity against methicillin-resistant, coagulase-negative, MLS-resistant (inducible) Staphylococcus epidermidis E3 by broth microdilution method
# [2] = test system: Staphylococcus epidermidis; test: Antibacterial activity against methicillin-resistant, MLS-resistant (constitutive) Staphylococcus epidermidis E2 by broth microdilution method
# [3] = test system: Staphylococcus epidermidis; test: Antibacterial activity against methicillin-susceptible, MLS-resistant (inducible) Staphylococcus epidermidis E1 by broth microdilution method
# Staphylococcus aureus [4] = test: Antibacterial activity against methicillin-resistant, […], MLS-resistant (constitutive) Staphylococcus aureus PU 19 by broth microdilution method
# Staphylococcus aureus [5] = test: Antibacterial activity against methicillin-susceptible, MLS-resistant (inducible) Staphylococcus aureus PU 64 by broth microdilution method
# Staphylococcus aureus [6] = test: Antibacterial activity against methicillin-resistant, MLS-resistant (constitutive) Staphylococcus aureus PU 20 by broth microdilution method
# Staphylococcus aureus [7] = test: Antibacterial activity against methicillin-resistant, MLS-resistant (inducible) Staphylococcus aureus PU 32 by broth microdilution method
# Staphylococcus aureus [8] = test: Antibacterial activity against erythromycin-susceptible Staphylococcus aureus ATCC 29213 by broth microdilution method
# Streptococcus pyogenes [9] = test: Antibacterial activity against erythromycin-susceptible Streptococcus pyogenes A3 by broth microdilution method
# Streptococcus pyogenes [10] = test: Antibacterial activity against MLS-resistant (constitutive) Streptococcus pyogenes A2 by broth microdilution method
# [11] = test system: Streptococcus dysgalactiae; test: Antibacterial activity against erythromycin-resistant Streptococcus dysgalactiae A1 by broth microdilution method
# Streptococcus pneumoniae [12] = test: Antibacterial activity against MLS-resistant (constitutive), penicillin-susceptible Streptococcus pneumoniae PU27 by broth microdilution method
# Streptococcus pneumoniae [13] = test: Antibacterial activity against MLS-resistant (constitutive), penicillin-resistant Streptococcus pneumoniae PU11 by broth microdilution method
# Streptococcus pneumoniae [14] = test: Antibacterial activity against penicillin-susceptible Streptococcus pneumoniae PU09 harboring mef gene by broth microdilution method
# Streptococcus pneumoniae [15] = test: Antibacterial activity against erythromycin-susceptible Streptococcus pneumoniae ATCC 49619 by broth microdilution method
SMILES,MIC [1] [mg/L],MIC [2] [mg/L],MIC [3] [mg/L],MIC (Staphylococcus aureus [4]) [mg/L],MIC (Staphylococcus aureus [5]) [mg/L],MIC (Staphylococcus aureus [6]) [mg/L],MIC (Staphylococcus aureus [7]) [mg/L],MIC (Staphylococcus aureus [8]) [mg/L],MIC (Streptococcus pyogenes [9]) [mg/L],MIC (Streptococcus pyogenes [10]) [mg/L],MIC [11] [mg/L],MIC (Streptococcus pneumoniae [12]) [mg/L],MIC (Streptococcus pneumoniae [13]) [mg/L],MIC (Streptococcus pneumoniae [14]) [mg/L],MIC (Streptococcus pneumoniae [15]) [mg/L]
CC[C@H]1OC(=O)[C@H](C)[C@@H](OC(=O)Cc2cccnc2)[C@H](C)[C@@H](O[C@@H]2O[C@H](C)C[C@H](N(C)C)[C@H]2O)[C@](C)(OC)C[C@@H](C)/C(=N\OC/C=C/c2cnc3ccccc3c2)[C@H](C)[C@H]2OC(=O)O[C@@]21C,> 256,> 256,> 256,> 256,32,> 256,64,64,1,128,16,64,128,8,2
CC[C@H]1OC(=O)[C@H](C)[C@@H](OC(=O)Cc2ccccn2)[C@H](C)[C@@H](O[C@@H]2O[C@H](C)C[C@H](N(C)C)[C@H]2O)[C@](C)(OC)C[C@@H](C)/C(=N\OC/C=C/c2cnc3ccccc3c2)[C@H](C)[C@H]2OC(=O)O[C@@]21C,32,> 256,32,> 256,32,> 256,64,32,0.5,32,8,32,64,16,1
CC[C@H]1OC(=O)[C@H](C)[C@@H](OC(=O)Cc2cccnc2)[C@H](C)[C@@H](O[C@@H]2O[C@H](C)C[C@H](N(C)C)[C@H]2O)[C@](C)(OC)C[C@@H](C)/C(=N\OCC#Cc2cncc3ccccc23)[C@H](C)[C@H]2OC(=O)O[C@@]21C,> 256,> 256,> 256,> 256,32,> 256,64,32,1,64,8,64,64,8,1
CC[C@H]1OC(=O)[C@H](C)[C@@H](OC(=O)Cc2ccccn2)[C@H](C)[C@@H](O[C@@H]2O[C@H](C)C[C@H](N(C)C)[C@H]2O)[C@](C)(OC)C[C@@H](C)/C(=N\OCC#Cc2cncc3ccccc23)[C@H](C)[C@H]2OC(=O)O[C@@]21C,> 256,> 256,> 256,> 256,16,> 256,32,32,8,32,8,32,32,8,1
CC[C@H]1OC(=O)[C@H](C)[C@@H](O[C@H]2C[C@@](C)(OC)[C@@H](O)[C@H](C)O2)[C@H](C)[C@@H](O[C@@H]2O[C@H](C)C[C@H](N(C)C)[C@H]2O)[C@](C)(O)C[C@@H](C)CN(C)[C@H](C)[C@@H](O)[C@]1(C)O [AZITHROMYCIN],> 256,> 256,> 256,> 256,,,> 256,2,≤ 0.008,> 256,64,,> 256,64,0.25
CC[C@H]1OC(=O)[C@H](C)[C@@H](O[C@H]2C[C@@](C)(OC)[C@@H](O)[C@H](C)O2)[C@H](C)[C@@H](O[C@@H]2O[C@H](C)C[C@H](N(C)C)[C@H]2O)[C@](C)(OC)C[C@@H](C)C(=O)[C@H](C)[C@@H](O)[C@]1(C)O [CLARITHROMYCIN],> 256,> 256,> 256,> 256,> 256,> 256,> 256,0.5,≤ 0.008,> 256,16,> 256,> 256,> 256,0.032
CC[C@H]1OC(=O)[C@H](C)C(=O)[C@H](C)[C@@H](O[C@@H]2O[C@H](C)C[C@H](N(C)C)[C@H]2O)[C@](C)(OC)C[C@@H](C)C(=O)[C@H](C)[C@H]2N(CCCCn3cnc(-c4cccnc4)c3)C(=O)O[C@]12C [TELITHROMYCIN],8,> 256,1,> 256,0.5,> 256,1,0.25,≤ 0.008,128,2,0.125,4,0.125,≤ 0.008
